Measured values as given in PubChem BioAssay AID248 (DTP/NCI, 2004).
Several values for one entry are separate records, joined by “and”; a condition that tells them apart may be missing. Equal values may be shown once. Inconclusive results and toxic doses are left out.

Tested on: L1210 leukemia ip in BDF1 mice, survival T/C
Assay: NCI In Vivo Anticancer Drug Screen. Data for tumor model L1210 Leukemia (intraperitoneal) in B6D2F1 (BDF1) mice
Settings: endpoint: mean survival time, higher = longer survival
In short: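 Transplantable tumor model; survival measured in treated vs vehicle control mice. Value = treated/control.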

[1] = dose: 100.0 mg/kg/injection, schedule: Q01DX009 (ip), vehicle: saline
[2] = dose: 100.0 mg/kg/injection, schedule: Q01DX009 (ip), vehicle: Klucel (hydroxypropylcellulose) (HPC)
[3] = dose: 100.0 mg/kg/injection, schedule: Q04DX003 (ip), vehicle: Klucel (hydroxypropylcellulose) (HPC)
[4] = dose: 200.0 mg/kg/injection, schedule: Q01DX009 (ip), vehicle: Klucel (hydroxypropylcellulose) (HPC)
[5] = dose: 200.0 mg/kg/injection, schedule: Q04DX003 (ip), vehicle: Klucel (hydroxypropylcellulose) (HPC)
[6] = dose: 400.0 mg/kg/injection, schedule: Q04DX003 (ip), vehicle: Klucel (hydroxypropylcellulose) (HPC)

Compound: CCCCCCOC(=O)C(N)Cc1ccc(O)c(N(CCCl)CCCl)c1 (stereo not drawn)
- T/C (dose: 0.01 mg/kg/injection, schedule: Q01DX009 (ip), vehicle: saline): 123 % of control
- T/C (dose: 0.12 mg/kg/injection, schedule: Q01DX001 (ip), vehicle: saline): 159 % of control
- T/C (dose: 0.3 mg/kg/injection, schedule: Q01DX009 (ip), vehicle: saline): 163 % of control
- T/C (dose: 0.5 mg/kg/injection, schedule: Q01DX001 (ip), vehicle: saline): 313 % of control
- T/C (dose: 0.6 mg/kg/injection, schedule: Q01DX009 (ip), vehicle: saline): 221 % of control
- T/C (dose: 1.0 mg/kg/injection, schedule: Q01DX001 (ip), vehicle: saline): 120 % of control
- T/C (dose: 1.1 mg/kg/injection, schedule: Q01DX009 (ip), vehicle: saline): 210 % of control
- T/C (dose: 2.2 mg/kg/injection, schedule: Q01DX001 (ip), vehicle: saline): 198 % of control
- T/C (dose: 2.5 mg/kg/injection, schedule: Q01DX001 (ip), vehicle: saline): 163 % of control
- T/C (dose: 3.3 mg/kg/injection, schedule: Q01DX001 (ip), vehicle: saline): 153 % of control
- T/C (dose: 5.0 mg/kg/injection, schedule: Q01DX001 (ip), vehicle: saline): 157 % of control and 236 % of control
- T/C (dose: 1.0 micrograms/kg/injection, schedule: Q01DX009 (ip), vehicle: saline): 104 % of control
- T/C (dose: 8.0 micrograms/kg/injection, schedule: Q01DX009 (ip), vehicle: saline): 189 % of control

Compound: CCN(CC)CCCC(C)Nc1ccnc2cc(Cl)ccc12 (stereo not drawn)
- T/C (dose: 25.0 mg/kg/injection, schedule: Q01DX001 (ip), vehicle: saline): 103 % of control
- T/C (dose: 25.0 mg/kg/injection, schedule: Q01DX009 (ip), vehicle: saline): 100 % of control
- T/C (dose: 25.0 mg/kg/injection, schedule: Q04DX002 (ip), vehicle: saline): 95 % of control
- T/C (dose: 50.0 mg/kg/injection, schedule: Q01DX001 (ip), vehicle: saline): 104 % of control
- T/C (dose: 50.0 mg/kg/injection, schedule: Q01DX009 (ip), vehicle: saline): 97 % of control and 98 % of control
- T/C (dose: 50.0 mg/kg/injection, schedule: Q04DX002 (ip), vehicle: saline): 95 % of control
- T/C (dose: 50.0 mg/kg/injection, schedule: Q04DX003 (ip), vehicle: saline): 105 % of control
- T/C (dose: 100.0 mg/kg/injection, schedule: Q01DX001 (ip), vehicle: saline): 118 % of control and 92 % of control
- T/C [1]: 98 % of control
- T/C (dose: 100.0 mg/kg/injection, schedule: Q04DX002 (ip), vehicle: saline): 95 % of control
- T/C (dose: 100.0 mg/kg/injection, schedule: Q04DX003 (ip), vehicle: saline): 108 % of control

Compound: CCCCNC(=O)OC
- T/C (dose: 50.0 mg/kg/injection, schedule: Q01DX009 (ip), vehicle: Klucel (hydroxypropylcellulose) (HPC)): 94 % of control
- T/C [2]: 97 % of control
- T/C [3]: 98 % of control
- T/C [4]: 102 % of control
- T/C [5]: 91 % of control

Compound: CCCCN1CCSC1=S
- T/C (dose: 100.0 mg/kg/injection, schedule: Q01DX009 (ip), vehicle: alcohol): 93 % of control
- T/C (dose: 100.0 mg/kg/injection, schedule: Q04DX002 (ip), vehicle: alcohol): 100 % of control
- T/C (dose: 200.0 mg/kg/injection, schedule: Q01DX009 (ip), vehicle: alcohol): 96 % of control
- T/C (dose: 200.0 mg/kg/injection, schedule: Q04DX002 (ip), vehicle: alcohol): 87 % of control
- T/C (dose: 400.0 mg/kg/injection, schedule: Q01DX009 (ip), vehicle: alcohol): 86 % of control
- T/C (dose: 400.0 mg/kg/injection, schedule: Q04DX002 (ip), vehicle: alcohol): 103 % of control

Compound: C[Si](C)(C#CC1(O)CCCCC1)CCl
- T/C [3]: 107 % of control
- T/C [5]: 106 % of control
- T/C [6]: 103 % of control

Compound: O=c1[nH]nc(Br)c(=O)n1C(c1ccccc1)c1ccccc1
- T/C (dose: 22.0 mg/kg/injection, schedule: Q01DX015 (ip), vehicle: carboxymethylcellulose (CMC)): 89 % of control
- T/C (dose: 33.0 mg/kg/injection, schedule: Q01DX015 (ip), vehicle: carboxymethylcellulose (CMC)): 97 % of control
- T/C (dose: 44.0 mg/kg/injection, schedule: Q01DX001 (ip), vehicle: carboxymethylcellulose (CMC)): 97 % of control and 101 % of control
- T/C (dose: 50.0 mg/kg/injection, schedule: Q01DX015 (ip), vehicle: carboxymethylcellulose (CMC)): 95 % of control
- T/C (dose: 66.0 mg/kg/injection, schedule: Q01DX001 (ip), vehicle: carboxymethylcellulose (CMC)): 94 % of control and 98 % of control
- T/C (dose: 75.0 mg/kg/injection, schedule: Q01DX015 (ip), vehicle: carboxymethylcellulose (CMC)): 97 % of control
- T/C (dose: 150.0 mg/kg/injection, schedule: Q01DX001 (ip), vehicle: carboxymethylcellulose (CMC)): 95 % of control and 96 % of control
- T/C (dose: 200.0 mg/kg/injection, schedule: Q01DX001 (ip), vehicle: carboxymethylcellulose (CMC)): 154 % of control
- T/C (dose: 400.0 mg/kg/injection, schedule: Q01DX001 (ip), vehicle: carboxymethylcellulose (CMC)): 96 % of control

Compound: O=C(O)c1nc[nH]c1C(=O)O
- T/C [1]: 102 % of control
- T/C [3]: 93 % of control
- T/C (dose: 200.0 mg/kg/injection, schedule: Q01DX009 (ip), vehicle: saline): 104 % of control
- T/C [5]: 96 % of control
- T/C (dose: 400.0 mg/kg/injection, schedule: Q01DX009 (ip), vehicle: saline): 94 % of control
- T/C [6]: 88 % of control

Compound: O=C(O)C(=O)NCc1cnccn1
- T/C (dose: 25.0 mg/kg/injection, schedule: Q01DX009 (ip), vehicle: water): 96 % of control
- T/C (dose: 50.0 mg/kg/injection, schedule: Q01DX009 (ip), vehicle: water): 97 % of control
- T/C (dose: 100.0 mg/kg/injection, schedule: Q04DX003 (ip), vehicle: water): 96 % of control

Compound: O=c1[nH]c2c(c(=O)[nH]1)CCCCC2
- T/C (dose: 100.0 mg/kg/injection, schedule: Q04DX002 (ip), vehicle: Klucel (hydroxypropylcellulose) (HPC)): 95 % of control
- T/C (dose: 200.0 mg/kg/injection, schedule: Q04DX002 (ip), vehicle: Klucel (hydroxypropylcellulose) (HPC)): 89 % of control
- T/C (dose: 400.0 mg/kg/injection, schedule: Q04DX002 (ip), vehicle: Klucel (hydroxypropylcellulose) (HPC)): 92 % of control

Compound: CNC(=O)Nc1nnc(C)s1
- T/C [2]: 98 % of control
- T/C [4]: 106 % of control
- T/C (dose: 400.0 mg/kg/injection, schedule: Q01DX009 (ip), vehicle: Klucel (hydroxypropylcellulose) (HPC)): 114 % of control

Compound: Cc1c(Cl)cc(C(C)C)c(O)c1CN1CCCCC1
- T/C (dose: 222.0 mg/kg/injection, schedule: Q01DX Z (ip), vehicle: saline): 92 % of control
- T/C (dose: 333.0 mg/kg/injection, schedule: Q01DX Z (ip), vehicle: saline): 91 % of control
- T/C (dose: 500.0 mg/kg/injection, schedule: Q01DX Z (ip), vehicle: saline): 91 % of control

Compound: COc1cccc2c1C(=O)c1c(O)c3c(c(O)c1C2=O)C[C@@](O)(/C(C)=N\O)C[C@@H]3OC1CC(N)C(O)C(C)O1 (stereo partly drawn)
- T/C (dose: 1.0 mg/kg/injection, schedule: Q04DX003 (ip), vehicle: water): 106 % of control
- T/C (dose: 2.0 mg/kg/injection, schedule: Q04DX003 (ip), vehicle: water): 115 % of control
- T/C (dose: 4.0 mg/kg/injection, schedule: Q04DX003 (ip), vehicle: water): 113 % of control
